Laboratory results reported in publication PMC5290327, “SC83288 is a clinical development candidate for the treatment of severe malaria” (Nature Communications, 2017).
Like-named read-outs stand apart in the source and are kept apart here.

How the values were obtained:
[1] = biological target: T1, RPS6KA4(Kin.Dom.1-N-term) (Homo sapiens, UniProt O75676); assay: KINOMEscan; format: binding; settings: read-out: Remaining enzyme activity
T1 construct: RPS6KA4(Kin.Dom.1-N-term); purchased Ambit (DiscoverX) KINOMEscan; Cerep
T1 sequence (O75676 33-301 limits assumed): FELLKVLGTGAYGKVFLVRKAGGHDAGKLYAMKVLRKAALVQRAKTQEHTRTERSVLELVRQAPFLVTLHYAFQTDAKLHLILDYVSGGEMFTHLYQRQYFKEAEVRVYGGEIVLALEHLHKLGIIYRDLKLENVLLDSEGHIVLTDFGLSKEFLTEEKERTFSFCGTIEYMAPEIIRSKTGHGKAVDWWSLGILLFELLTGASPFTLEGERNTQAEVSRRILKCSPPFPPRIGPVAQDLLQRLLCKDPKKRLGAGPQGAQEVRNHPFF
How it was run: (§1)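 Kinase preparations were T7 phage fusions produced in E. coli (32 °C until lysis, lysates clarified) or HEK-293-expressed proteins with DNA tags. These were mixed with immobilized active-site ligand and SC81458 at 10 μM. The amount of kinase in eluates was determined by qPCR.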

LATS2 = biological target: T2, LATS2 (Homo sapiens, UniProt Q9NRM7); assay: KINOMEscan; format: binding; settings: read-out: Remaining enzyme activity
T2 construct: purchased Ambit (DiscoverX) KINOMEscan; Cerep
T2 sequence (Q9NRM7 whole entry): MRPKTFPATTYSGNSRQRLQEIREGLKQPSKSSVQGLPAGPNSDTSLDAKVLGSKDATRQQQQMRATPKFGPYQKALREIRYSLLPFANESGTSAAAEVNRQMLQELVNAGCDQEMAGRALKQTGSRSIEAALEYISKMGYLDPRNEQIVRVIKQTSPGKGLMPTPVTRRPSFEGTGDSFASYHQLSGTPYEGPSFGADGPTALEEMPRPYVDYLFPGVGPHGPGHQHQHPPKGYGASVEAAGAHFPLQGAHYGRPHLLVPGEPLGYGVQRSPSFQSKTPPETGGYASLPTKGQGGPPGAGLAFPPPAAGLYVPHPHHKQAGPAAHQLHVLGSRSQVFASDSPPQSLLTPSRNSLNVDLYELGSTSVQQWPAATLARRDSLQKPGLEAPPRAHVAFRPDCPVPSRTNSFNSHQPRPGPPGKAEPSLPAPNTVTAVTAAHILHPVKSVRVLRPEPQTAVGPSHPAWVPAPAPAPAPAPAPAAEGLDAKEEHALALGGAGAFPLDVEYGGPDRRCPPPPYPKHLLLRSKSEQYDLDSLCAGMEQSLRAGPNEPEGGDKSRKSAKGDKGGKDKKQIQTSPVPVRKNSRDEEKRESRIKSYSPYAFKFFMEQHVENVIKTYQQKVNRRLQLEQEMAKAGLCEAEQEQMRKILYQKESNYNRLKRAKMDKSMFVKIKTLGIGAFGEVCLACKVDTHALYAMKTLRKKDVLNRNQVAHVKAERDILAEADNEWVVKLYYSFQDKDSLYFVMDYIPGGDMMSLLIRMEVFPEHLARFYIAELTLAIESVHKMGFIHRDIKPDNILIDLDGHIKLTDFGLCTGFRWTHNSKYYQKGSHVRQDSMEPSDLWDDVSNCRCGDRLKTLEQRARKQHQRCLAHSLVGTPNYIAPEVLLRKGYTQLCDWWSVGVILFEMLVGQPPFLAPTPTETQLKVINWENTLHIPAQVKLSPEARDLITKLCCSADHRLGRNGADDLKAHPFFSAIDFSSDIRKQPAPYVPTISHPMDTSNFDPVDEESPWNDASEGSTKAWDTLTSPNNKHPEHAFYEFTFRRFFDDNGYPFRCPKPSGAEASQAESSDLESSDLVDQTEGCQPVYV
How it was run: as §1

PIK3Cg = biological target: T3, PIK3Cg (Homo sapiens, UniProt P48736); assay: KINOMEscan; format: binding; settings: read-out: Remaining enzyme activity
T3 construct: purchased Ambit (DiscoverX) KINOMEscan; Cerep
How it was run: as §1

IKK-alpha = biological target: T4, IKK-alpha (Homo sapiens, UniProt O15111); assay: KINOMEscan; format: binding; settings: read-out: Remaining enzyme activity
T4 construct: purchased Ambit (DiscoverX) KINOMEscan; Cerep
T4 sequence (O15111 whole entry): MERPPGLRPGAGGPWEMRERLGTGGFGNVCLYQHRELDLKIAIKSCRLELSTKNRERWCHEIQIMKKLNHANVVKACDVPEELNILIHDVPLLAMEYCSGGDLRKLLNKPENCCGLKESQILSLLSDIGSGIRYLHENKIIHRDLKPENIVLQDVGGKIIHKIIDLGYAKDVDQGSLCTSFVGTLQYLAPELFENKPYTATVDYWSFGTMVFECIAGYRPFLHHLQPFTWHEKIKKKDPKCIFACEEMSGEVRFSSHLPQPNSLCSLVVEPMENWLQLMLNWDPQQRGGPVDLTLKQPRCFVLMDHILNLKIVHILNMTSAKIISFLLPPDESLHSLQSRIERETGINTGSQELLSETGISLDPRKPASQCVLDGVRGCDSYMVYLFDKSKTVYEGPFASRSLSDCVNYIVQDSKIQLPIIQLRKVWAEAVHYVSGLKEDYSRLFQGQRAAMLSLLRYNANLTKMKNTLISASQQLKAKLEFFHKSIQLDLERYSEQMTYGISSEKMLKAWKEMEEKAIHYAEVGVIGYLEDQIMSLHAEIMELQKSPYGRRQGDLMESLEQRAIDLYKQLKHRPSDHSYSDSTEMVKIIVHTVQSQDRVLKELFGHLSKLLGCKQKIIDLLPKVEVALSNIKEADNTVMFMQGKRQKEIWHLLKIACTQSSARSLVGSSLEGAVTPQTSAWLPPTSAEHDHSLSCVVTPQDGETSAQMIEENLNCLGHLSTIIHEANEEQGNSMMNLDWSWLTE
How it was run: as §1

JNK3 = biological target: T5, JNK3 (Homo sapiens, UniProt P53779); assay: KINOMEscan; format: binding; settings: read-out: Remaining enzyme activity
T5 construct: purchased Ambit (DiscoverX) KINOMEscan; Cerep
How it was run: as §1

PHKG2 = biological target: T6, PHKG2 (Homo sapiens, UniProt P15735); assay: KINOMEscan; format: binding; settings: read-out: Remaining enzyme activity
T6 construct: purchased Ambit (DiscoverX) KINOMEscan; Cerep
T6 sequence (P15735 whole entry): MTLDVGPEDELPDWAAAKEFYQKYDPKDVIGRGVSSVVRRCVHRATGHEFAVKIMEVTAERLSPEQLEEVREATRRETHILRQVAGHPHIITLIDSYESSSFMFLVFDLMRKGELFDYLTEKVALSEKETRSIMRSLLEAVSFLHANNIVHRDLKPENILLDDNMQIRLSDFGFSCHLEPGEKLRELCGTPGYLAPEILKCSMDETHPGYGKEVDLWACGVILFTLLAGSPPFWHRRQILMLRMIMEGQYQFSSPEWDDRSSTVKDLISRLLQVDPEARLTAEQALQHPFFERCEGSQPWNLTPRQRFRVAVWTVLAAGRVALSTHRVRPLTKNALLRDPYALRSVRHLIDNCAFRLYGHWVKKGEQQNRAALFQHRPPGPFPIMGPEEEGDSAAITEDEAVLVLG
How it was run: as §1

NEK2 = biological target: T7, NEK2 (Homo sapiens, UniProt P51955); assay: KINOMEscan; format: binding; settings: read-out: Remaining enzyme activity
T7 construct: purchased Ambit (DiscoverX) KINOMEscan; Cerep
How it was run: as §1

[2] = biological target: T8, RPS6KA2(Kin.Dom.1-N-term) (Homo sapiens, UniProt Q15349); assay: KINOMEscan; format: binding; settings: read-out: Remaining enzyme activity
T8 construct: RPS6KA2(Kin.Dom.1-N-term); purchased Ambit (DiscoverX) KINOMEscan; Cerep
How it was run: as §1

EPHB2 = biological target: T9, EPHB2 (Homo sapiens, UniProt P29323); assay: KINOMEscan; format: binding; settings: read-out: Remaining enzyme activity
T9 construct: purchased Ambit (DiscoverX) KINOMEscan; Cerep
How it was run: as §1

EPHB3 = biological target: T10, EPHB3 (Homo sapiens, UniProt P54753); assay: KINOMEscan; format: binding; settings: read-out: Remaining enzyme activity
T10 construct: purchased Ambit (DiscoverX) KINOMEscan; Cerep
T10 sequence (P54753 34-998): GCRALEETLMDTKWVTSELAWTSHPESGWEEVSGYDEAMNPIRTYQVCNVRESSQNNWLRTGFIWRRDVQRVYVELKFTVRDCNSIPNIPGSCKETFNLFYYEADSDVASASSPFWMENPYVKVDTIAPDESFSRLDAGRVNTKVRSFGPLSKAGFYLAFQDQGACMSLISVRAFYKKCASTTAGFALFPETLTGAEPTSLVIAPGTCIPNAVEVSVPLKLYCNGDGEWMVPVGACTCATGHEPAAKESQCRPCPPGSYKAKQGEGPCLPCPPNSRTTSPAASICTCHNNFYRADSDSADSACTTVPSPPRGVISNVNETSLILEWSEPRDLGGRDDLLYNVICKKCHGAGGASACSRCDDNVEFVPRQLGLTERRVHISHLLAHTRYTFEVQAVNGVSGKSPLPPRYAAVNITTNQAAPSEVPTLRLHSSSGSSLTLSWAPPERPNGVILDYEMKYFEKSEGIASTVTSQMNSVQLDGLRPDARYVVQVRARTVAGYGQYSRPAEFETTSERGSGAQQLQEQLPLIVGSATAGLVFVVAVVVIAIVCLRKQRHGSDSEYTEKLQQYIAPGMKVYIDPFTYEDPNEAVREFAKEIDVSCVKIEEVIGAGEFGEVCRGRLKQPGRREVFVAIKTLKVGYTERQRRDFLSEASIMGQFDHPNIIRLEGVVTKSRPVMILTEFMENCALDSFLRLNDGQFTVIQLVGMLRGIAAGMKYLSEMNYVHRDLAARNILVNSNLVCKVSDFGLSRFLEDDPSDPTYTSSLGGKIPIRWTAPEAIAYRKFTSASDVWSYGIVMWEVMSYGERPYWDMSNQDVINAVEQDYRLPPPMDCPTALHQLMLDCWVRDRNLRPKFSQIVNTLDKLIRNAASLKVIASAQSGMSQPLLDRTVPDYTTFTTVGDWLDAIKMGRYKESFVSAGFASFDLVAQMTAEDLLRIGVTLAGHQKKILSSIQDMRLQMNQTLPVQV
How it was run: as §1

EGFR(L858R) = biological target: T11, EGFR(L858R) (Homo sapiens, UniProt P00533, L858R); assay: KINOMEscan; format: binding; settings: read-out: Remaining enzyme activity
T11 construct: purchased Ambit (DiscoverX) KINOMEscan; Cerep
How it was run: as §1

HIPK2 = biological target: T12, HIPK2 (Homo sapiens, UniProt Q9H2X6); assay: KINOMEscan; format: binding; settings: read-out: Remaining enzyme activity
T12 construct: purchased Ambit (DiscoverX) KINOMEscan; Cerep
How it was run: as §1

STK39 = biological target: T13, STK39 (Homo sapiens, UniProt Q9UEW8); assay: KINOMEscan; format: binding; settings: read-out: Remaining enzyme activity
T13 construct: purchased Ambit (DiscoverX) KINOMEscan; Cerep
How it was run: as §1

BMPR1a = biological target: T14, BMPR1a (Homo sapiens, UniProt P36894); assay: KINOMEscan; format: binding; settings: read-out: Remaining enzyme activity
T14 construct: purchased Ambit (DiscoverX) KINOMEscan; Cerep
T14 sequence (P36894 24-532): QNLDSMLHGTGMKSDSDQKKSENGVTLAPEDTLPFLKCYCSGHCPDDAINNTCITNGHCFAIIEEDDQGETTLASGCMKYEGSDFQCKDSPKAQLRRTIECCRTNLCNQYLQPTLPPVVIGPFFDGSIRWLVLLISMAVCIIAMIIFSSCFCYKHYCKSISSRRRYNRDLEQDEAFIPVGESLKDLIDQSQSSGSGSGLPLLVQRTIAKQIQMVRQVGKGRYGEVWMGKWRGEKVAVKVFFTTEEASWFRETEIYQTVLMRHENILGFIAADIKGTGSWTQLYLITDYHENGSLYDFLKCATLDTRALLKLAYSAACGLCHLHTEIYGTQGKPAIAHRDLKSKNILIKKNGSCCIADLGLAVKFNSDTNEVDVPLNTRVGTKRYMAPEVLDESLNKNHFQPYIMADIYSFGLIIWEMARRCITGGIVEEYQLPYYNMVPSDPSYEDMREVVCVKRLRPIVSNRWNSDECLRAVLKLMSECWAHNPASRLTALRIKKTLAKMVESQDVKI
How it was run: as §1

RIPK1 = biological target: T15, RIPK1 (Homo sapiens, UniProt Q13546); assay: KINOMEscan; format: binding; settings: read-out: Remaining enzyme activity
T15 construct: purchased Ambit (DiscoverX) KINOMEscan; Cerep
T15 sequence (Q13546 whole entry): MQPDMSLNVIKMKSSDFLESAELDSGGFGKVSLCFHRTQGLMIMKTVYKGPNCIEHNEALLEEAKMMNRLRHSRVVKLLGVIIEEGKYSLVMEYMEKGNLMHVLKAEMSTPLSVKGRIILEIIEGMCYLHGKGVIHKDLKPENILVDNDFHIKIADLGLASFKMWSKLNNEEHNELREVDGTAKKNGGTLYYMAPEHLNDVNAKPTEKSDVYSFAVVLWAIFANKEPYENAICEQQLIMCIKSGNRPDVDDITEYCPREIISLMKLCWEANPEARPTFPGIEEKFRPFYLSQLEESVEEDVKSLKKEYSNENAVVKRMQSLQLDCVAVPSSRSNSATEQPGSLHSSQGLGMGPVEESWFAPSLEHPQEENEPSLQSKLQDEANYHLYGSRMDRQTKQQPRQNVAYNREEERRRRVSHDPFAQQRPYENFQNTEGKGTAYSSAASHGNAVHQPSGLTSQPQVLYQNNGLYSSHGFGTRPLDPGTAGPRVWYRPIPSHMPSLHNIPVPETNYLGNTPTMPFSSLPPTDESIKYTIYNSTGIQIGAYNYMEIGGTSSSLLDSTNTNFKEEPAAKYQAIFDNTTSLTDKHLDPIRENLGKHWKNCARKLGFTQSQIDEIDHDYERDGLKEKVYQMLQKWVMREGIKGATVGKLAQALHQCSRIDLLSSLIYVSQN
How it was run: as §1

PRKX = biological target: T16, PRKX (Homo sapiens, UniProt P51817); assay: KINOMEscan; format: binding; settings: read-out: Remaining enzyme activity
T16 construct: purchased Ambit (DiscoverX) KINOMEscan; Cerep
T16 sequence (P51817 whole entry): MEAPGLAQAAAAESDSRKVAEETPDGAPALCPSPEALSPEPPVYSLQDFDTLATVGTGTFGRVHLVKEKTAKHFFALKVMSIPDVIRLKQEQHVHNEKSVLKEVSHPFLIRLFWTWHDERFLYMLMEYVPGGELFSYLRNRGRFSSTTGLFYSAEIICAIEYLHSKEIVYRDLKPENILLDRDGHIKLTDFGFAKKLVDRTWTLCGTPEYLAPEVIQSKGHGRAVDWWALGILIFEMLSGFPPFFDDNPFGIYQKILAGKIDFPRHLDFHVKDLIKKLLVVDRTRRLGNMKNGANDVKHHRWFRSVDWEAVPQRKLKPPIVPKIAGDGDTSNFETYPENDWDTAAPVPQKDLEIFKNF
How it was run: as §1

PIK3CA(E542K) = biological target: T17, PIK3CA(E542K) (Homo sapiens, UniProt P42336, E542K); assay: KINOMEscan; format: binding; settings: read-out: Remaining enzyme activity
T17 construct: purchased Ambit (DiscoverX) KINOMEscan; Cerep
How it was run: as §1

[3] = Tolerability of i.v. bolus dose; format: in vivo, mouse; settings: mice
Method: The maximal-tolerated i.v. bolus dose of SC83288 was at 30 mg kg^−1 body weight (extrapolated initial drug plasma concentration C0 of 65,600 ng ml^−1) and 15 mg kg^−1 body weight (C0 of 27,300 ng ml^−1) in rats and mice, respectively. Observed adverse effects included ataxia, respiratory symptoms and sleepiness. However, all treated animals fully recovered within 30 min after drug application. […] Increasing the dose to 45 mg kg^−1 body weight caused apnoea in rats. The no-observed-adverse-effect level and the no-observed-effect level in rats corresponded to a tested i.v. bolus dose of 22.5 mg kg^−1 body weight (C0 of 49,200 ng ml^−1) and 15 mg kg^−1 body weight (C0 of 32,800 ng ml^−1), respectively.
On the treatment day, all animals were weighed and the dosing volume was calculated for each individual animal according to its actual body weight. All animal were dosed once. Blood samples were taken at different time points and plasma was collected after centrifugation (10,000g, 10 min, 4 °C). Plasma samples were analysed by LC–MS/MS. […] All relevant observations were recorded. The PK studies in cynomolgus monkeys and beagle dogs were performed by the Laboratory of Pharmacology and Toxicology (LPT), Hamburg, and PK and toxicity studies in mice and rats were performed by the 4SC Discovery GmbH, Munich. […]

PK study = format: in vivo, cynomolgus; settings: for half-life: 2 mg/kg
Method: On the treatment day, all animals were weighed and the dosing volume was calculated for each individual animal according to its actual body weight. All animal were dosed once. Blood samples were taken at different time points and plasma was collected after centrifugation (10,000g, 10 min, 4 °C). Plasma samples were analysed by LC–MS/MS. […] All relevant observations were recorded. The PK studies in cynomolgus monkeys and beagle dogs were performed by the Laboratory of Pharmacology and Toxicology (LPT), Hamburg, and PK and toxicity studies in mice and rats were performed by the 4SC Discovery GmbH, Munich. PK parameters were obtained by a non-compartment analysis, using Kinetica 4.1 (Thermo Scientific).

[4] = cynomolgus monkey, plasma, iv, cynomolgus i.v. 2 mg kg^−1

CCCCN1CCN(C(=N)c2cccc(NC(=O)Nc3ccc(S(=O)(=O)NCc4ccc(S(N)(=O)=O)cc4)cc3)c2)CC1 [SC81458, 4-(3-(3-((4-butylpiperazin-1-yl)(imino)methyl)phenyl)ureido)-N-(4-sulfamoylbenzyl) benzenesulfonamide]
remaining binding at 10 µM [1]: 85%
remaining binding at 10 µM (LATS2): 100%
remaining binding at 10 µM (PIK3Cg): 92%
remaining binding at 10 µM (IKK-alpha): 100%
remaining binding at 10 µM (JNK3): 100%
remaining binding at 10 µM (PHKG2): 100%
remaining binding at 10 µM (NEK2): 96%
remaining binding at 10 µM [2]: 100%
remaining binding at 10 µM (EPHB2): 100%
remaining binding at 10 µM (EPHB3): 98%
remaining binding at 10 µM (EGFR(L858R)): 92%
remaining binding at 10 µM (HIPK2): 100%
remaining binding at 10 µM (STK39): 57%
remaining binding at 10 µM (BMPR1a): 100%
remaining binding at 10 µM (RIPK1): 100%
remaining binding at 10 µM (PRKX): 72%
remaining binding at 10 µM (PIK3CA(E542K)): 100%

COC(=O)N1CCN(C(=N)c2cccc(NC(=O)Nc3ccc(S(=O)(=O)NCc4ccc(S(N)(=O)=O)cc4)cc3)c2)CC1 [SC83288, methyl 4-(imino(3-(3-(4-(N-(4-sulfamoylbenzyl)sulfamoyl)phenyl)ureido)phenyl)methyl) piperazine-1-carboxylate]
maximal-tolerated i.v. bolus dose [3]: 15 mg kg^−1 body weight
C0 ([3]; mouse, plasma, iv, 15 mg kg^−1 i.v. bolus, read-out: extrapolated C0): 27300 ng/mL
half-life (PK study; cynomolgus monkey, plasma, iv, cynomolgus i.v. 2 mg kg^−1, read-out: t1/2 effective): 1.03 h
half-life (PK study; cynomolgus monkey, plasma, iv, cynomolgus i.v. 2 mg kg^−1, read-out: t1/2 initial): 0.267 h
half-life (PK study; cynomolgus monkey, plasma, iv, cynomolgus i.v. 2 mg kg^−1, read-out: t1/2 terminal): 5.33 h
AUC(0-inf) (PK study; [4]): 4250 ng·h/mL
C0 (PK study; [4]): 7340 ng/mL
Cmax (PK study; [4]): 6570 ng/mL
Tmax (PK study; [4]): 5 min
clearance (PK study; [4]): 7.83 mL/min/kg
MRT last (PK study; cynomolgus monkey, plasma, iv, cynomolgus i.v. 2 mg kg^−1, read-out: MRT0-t): 1.5 h
C0 as multiple of the free MPC (PK study; cynomolgus, i.v. 2 mg kg^−1): ~17 times
VC (PK study; cynomolgus, i.v. 2 mg kg^−1): 0.273 L/kg
